According to publication PMC10065791 (eLife, 2023):

Legend:
[1] = target: T1, I84V mutant protease (Human immunodeficiency virus type 1 group M subtype B, UniProt P12497, I572V/Q495K); experiment: Ki assay (FRET enzyme inhibition), I84V protease; assay type: biochemical, HIV-1; conditions: I84V drug-resistant protease variant
T1 construct: the gene encoding the desired HIV-1 protease was subcloned into the heat-inducible pXC35 expression vector; made in house
Description: (§1) The highly mutated, resistant, protease variant genes were purchased on a pET11a plasmid with codon optimization for protein expression in Escherichia coli (Genewiz). A Q7K mutation was included to prevent autoproteolysis ([Rosé et al., 1993]). The expression, isolation, and purification of WT and mutant HIV-1 proteases used for enzymatic assays were carried out as previously described ([Henes et al., 2019]; [King et al., 2002]; [Özen et al., 2014]). Briefly, the gene encoding the desired HIV-1 protease was subcloned into the heat-inducible pXC35 expression vector (ATCC) and transformed into E. coli TAP-106 cells. Cells grown in 6 l of Terrific Broth were lysed with a cell disruptor twice, and the protein was purified from inclusion bodies ([Hui et al., 1993]). Inclusion bodies, isolated as a pellet after centrifugation, were dissolved in 50% acetic acid followed by another round of centrifugation at 19,000 rpm for 30 min to remove insoluble impurities. Size-exclusion chromatography was carried out on a 2.1 l Sephadex G-75 Superfine (Sigma Chemical) column equilibrated with 50% acetic acid to separate high molecular weight proteins from the desired protease. Pure fractions of HIV-1 protease were refolded using a tenfold dilution of refolding buffer (0.05 M sodium acetate at pH 5.5, 5% ethylene glycol, 10% glycerol, and 5 µM DTT). Folded protein was concentrated to 0.5–3 mg/ml and stored. The stored protease was used in KM and Ki assays.
(§2) Enzyme inhibition constants (Ki values) were determined as previously described ([Henes et al., 2019]; [Lockbaum et al., 2019]; [Matayoshi et al., 1990]; [Windsor and Raines, 2015]). Briefly, in a 96-well plate, inhibitors were serially diluted down from […] depending on protease resistance. All samples were incubated with 5 nM protein for 1 hr. A 10-amino acid substrate containing an optimized protease cleavage site ([Windsor and Raines, 2015]), purchased from Bachem, with an EDANS/DABCYL FRET pair was dissolved in 4% DMSO at 120 µM. Using a PerkinElmer Envision plate reader, 5 µl of the 120 µM substrate were added to the 96-well plate to a final concentration of 10 µM. […] Data was analyzed with Prism7.

[2] = target: T2, wild-type NL4-3 protease (Human immunodeficiency virus type 1 group M subtype B, UniProt P12497, Q495K); experiment: Ki assay (FRET enzyme inhibition), wild-type protease; assay type: biochemical, HIV-1; conditions: limit of detection 5 pM, read-out: Ki WT
T2 construct: the gene encoding the desired HIV-1 protease was subcloned into the heat-inducible pXC35 expression vector; made in house
Description: as §1, §2

[3] = target: T3, I50V/A71V mutant protease (Human immunodeficiency virus type 1 group M subtype B, UniProt P12497, A559V/I538V/Q495K); experiment: Ki assay (FRET enzyme inhibition), I50V/A71V protease; assay type: biochemical, HIV-1; conditions: I50V/A71V drug-resistant protease variant
T3 construct: the gene encoding the desired HIV-1 protease was subcloned into the heat-inducible pXC35 expression vector; made in house
Description: as §1, §2

[4] = system: virus pool selected to 5000 nM inhibitor; experiment: TZM infection assay, inhibitor-selected resistant virus pools; assay type: cell-based, HIV-1; conditions: Human immunodeficiency virus 1, read-out: EC50 Viral culture (5000 nM); final virus pool selected with the same inhibitor to 5000 nM; highest level recorded 100 µM
Description: In addition to the sequence of the terminally selected virus, we validated that selection occurred over the entire course of the selection protocol. […] In comparing the number of mutations present in cultures using the I84V versus the I50V pathway, we noted that on average there were more mutations in the I50V viruses at the intermediate drug concentration compared to the I84V viruses (100 nM, p=0.03), and this trend continued at the higher drug concentration.
An aliquot of 3 × 10^6 CEMx174 cells was incubated at 37°C for 2–3 hr with 250 µl of a virus stock generated from the HIV-1 infectious molecular clone pNL4-3. The culture volume was then brought to 10 ml with RPMI medium. […] After 48 hr and every 48 hr after, the cells were pelleted by centrifugation and 10 ml of fresh medium and inhibitors were added. When the culture had undergone extensive cytopathic effect (CPE) indicative of viral replication, the supernatant medium and the cells were harvested separately and stored at –80°C. The virus-containing supernatant was used to start the next round of infection, and after several rounds at the initial concentration, the inhibitor concentration was increased 1.5-fold at each subsequent round of virus passage.
PI dilutions were prepared by taking 10 µM stocked and performing a fivefold serial dilution using RPMI media (final drug concentration is […]). One dilution of drug was added to each well of a 24-well plate and repeated so each virus would have a full set of dilutions. Viruses for the assay were made by seeding 3 × 10^6 CEM cells in a 24-well plate and incubating with 250 µl of virus at 37°C for 2–3 hr before bringing the culture to 10 ml with RPMI media. After 48 hr, the medium was changed and repeated every 48 hr after until the culture had undergone CPE. Infected CEM cells were collected and diluted so that 1 ml of cells could be plated in each well containing a unique drug dilution. Then 24 hr later the virus supernatant was collected from each well followed by filtering through a […] then placed in –80°C. Viruses were thawed and added to 96-well plates in triplicate. TZM-bl cells were collected and diluted to a concentration of 2 × 10^5 cells/ml, 100 µl were added on top of the pre-plated viruses. Plates were kept in 37°C, 5% CO2 in an incubator for 48 hr. After 48 hr, the cells in the plates were lysed by removing the medium, washing two times with 100 µl PBS, and then lysed with 1× lysis buffer (made from 5× Promega Firefly Lysis Buffer). Plates were frozen for at least 24 hr and then thawed for 2 hr before analyzing with Promega Firefly Luciferase Kit on a luminometer. Data was analyzed with Prism 7 to fit sigmoidal dose–response curves.

SMILES	Ki [1]	Ki [2]	Ki [3]	EC50 [4]
CCC(CC)CN(C[C@@H](O)[C@H](Cc1ccccc1)NC(=O)O[C@H]1CO[C@H]2OCC[C@H]21)S(=O)(=O)c1ccc(OC)cc1 [UMASS-7]	0.0121 ± 0.0045 nM	< 0.005 nM	0.0182 ± 0.003 nM	–
CCC(CC)CN(C[C@@H](O)[C@H](Cc1ccccc1)NC(=O)O[C@H]1CO[C@H]2OCC[C@H]21)S(=O)(=O)c1ccc2c(c1)OCO2 [UMASS-9]	0.0076 ± 0.0016 nM	< 0.005 nM	0.0423 ± 0.0026 nM	> 100000 nM
CC[C@H](C)CN(C[C@@H](O)[C@H](Cc1ccccc1)NC(=O)O[C@H]1CO[C@H]2OCC[C@H]21)S(=O)(=O)c1ccc2c(c1)OCO2 [UMASS-4]	0.0105 ± 0.0018 nM	< 0.005 nM	0.0329 ± 0.003 nM	13700 nM
CC[C@H](C)CN(C[C@@H](O)[C@H](Cc1ccccc1)NC(=O)O[C@H]1CO[C@H]2OCC[C@H]21)S(=O)(=O)c1ccc2ncsc2c1 [UMASS-5]	0.007 ± 0.0017 nM	< 0.005 nM	0.0078 ± 0.0009 nM	> 100000 nM
CC[C@H](C)CN(C[C@@H](O)[C@H](Cc1ccccc1)NC(=O)O[C@H]1CO[C@H]2OCC[C@H]21)S(=O)(=O)c1ccc(CO)cc1 [UMASS-3]	0.0099 ± 0.0027 nM	< 0.005 nM	0.0799 ± 0.0059 nM	14800 nM
